In patent publication US6803378B2, “HIV integrase inhibitors” (Bristol-Myers Squibb Company, priority 2000, dated 2004):

Each molecule was assayed against T1, HIV-1 integrase (Human immunodeficiency virus type 1 group M subtype B, UniProt P04585) (assay: In vitro activity against integrase, Method A (immobilized precleaved substrate DNA, biotinylated target DNA, 96 well plate)). Details: Assay Method A, read-out: Percent inhibition of HIV Integrase at 70 uM.
T1 construct: Purified recombinant HIV-1 integrase was incubated with immobilized precleaved substrate DNA
Type: biochemical
Procedure: The in vitro activities, against integrase, of compounds of the present invention were measured by one of the following three methods.
In Method A, the in vitro activity against integrase was measured in a manner which was similar to previously disclosed methods (cf. Hazuda, D. J.; Felock, P.; Witmer, M.; Wolfe, A.; Stillmock, K.; Grobler, J. A.; Espeseth, A.; Gabryelski, L.; Schleif, W.; Blau, C.; Miller, M. D. Science, 2000, 287, 646) Purified recombinant HIV-1 integrase was incubated with immobilized precleaved substrate DNA in a 96 well plate for 20 min at 37° C. After the integration complex was formed, compounds at desired concentrations were added to the wells followed by a 10 min incubation at 37° C. Biotinyted Target DNA was then added and the reaction was carried out for an additional 1 hour at 37° C. Wells were then washed thoroughly to remove any free DNA and integration activity was measured by using a commercial kit to quantitate the amount of biotinyted target DNA integrated into the substrate.

Row | Structure (SMILES) | inhibition at 70 µM [%]
1 | CN(Cc1ccc(OCc2ccc(F)cc2)cc1)C(=O)/C=C(\O)C(=O)O [Compound 1, 3-{[4-(4-Fluoro-benzyloxy)-benzyl]-methyl-carbamoyl}-2-hydroxy-acrylic acid] | 40
2 | CN(Cc1cccc(Cc2ccc(F)cc2)c1)C(=O)/C=C(\O)C(=O)O [Compound 2, 3-{[3-(4-Fluoro-benzyl)-benzyl]-methyl-carbamoyl}-2-hydroxy-acrylic acid] | 88
3 | CN(Cc1cccc(OCc2ccc(F)cc2)c1)C(=O)/C=C(\O)C(=O)O [Compound 3, 3-{[3-(4-Fluoro-benzyloxy)-benzyl]-methyl-carbamoyl}-2-hydroxy-acrylic acid] | 99
4 | CN(C(=O)/C=C(\O)C(=O)O)C(c1ccc(Cl)cc1)c1ccc(Cl)cc1 [Compound 4, 3-{[Bis-(4-chloro-phenyl)-methyl]-methyl-carbamoyl}-2-hydroxy-acrylic acid] | 90
5 | CN(C(=O)/C=C(\O)C(=O)O)C(c1ccc(F)cc1)c1ccc(F)cc1 [Compound 5, 3-{[Bis-(4-fluoro-phenyl)-methyl]-methyl-carbamoyl}-2-hydroxy-acrylic acid] | 65
6 | COc1ccc(C(c2ccc(OC)cc2)N(C)C(=O)/C=C(\O)C(=O)O)cc1 [Compound 6, 3-{[Bis-(4-methoxy-phenyl)-methyl]-methyl-carbamoyl}-2-hydroxy-acrylic acid] | 75
7 | CN(C(=O)/C=C(\O)C(=O)O)C(c1ccccc1)c1ccccc1 [Compound 7, 3-(Benzhydryl-methyl-carbamoyl)-2-hydroxy-acrylic acid] | 32
8 | CN(Cc1ccccc1Br)C(=O)/C=C(\O)C(=O)O [Compound 12, 3-[(2-Bromo-benzyl)-methyl-carbamoyl]-2-hydroxy-acrylic acid] | 85
9 | O=C(O)/C(O)=C/C(=O)N(CCc1ccccc1)Cc1ccccc1 [Compound 13, 3-(Benzyl-phenethyl-carbamoyl)-2-hydroxy-acrylic acid] | 94
10 | CN(Cc1csc2ccc(Cl)cc12)C(=O)/C=C(\O)C(=O)O [Compound 15, 3-[(5-Chloro-benzo[b]thiophen-3-ylmethyl)-methyl-carbamoyl]-2-hydroxy-acrylic acid] | 97
11 | CN(Cc1ccccc1)C(=O)/C=C(\O)C(=O)O [Compound 17, 3-(Benzyl-methyl-carbamoyl)-2-hydroxy-acrylic acid] | 89.5
12 | O=C(O)/C(O)=C/C(=O)N(CCc1ccc(F)cc1)Cc1ccccc1Cl [Compound 18, 3-{(2-Chloro-benzyl)-[2-(4-fluoro-phenyl)-ethyl]-carbamoyl}-2-hydroxy-acrylic acid] | 89.5
13 | O=C(O)/C(O)=C/C(=O)N(Cc1ccc(F)cc1)Cc1ccccc1Cl [Compound 19, 3-[(2-Chloro-benzyl)-(4-fluoro-benzyl)-carbamoyl]-2-hydroxy-acrylic acid] | 96.5
14 | O=C(O)/C(O)=C/C(=O)N(CCc1ccc(F)cc1)Cc1csc2ccc(Cl)cc12 [Compound 20, 3-{(5-Chloro-benzo[b]thiophen-3-ylmethyl)-[2-(4-fluoro-phenyl)-ethyl]-carbamoyl}-2-hydroxy-acrylic acid] | 97.5
15 | O=C(O)/C(O)=C/C(=O)N(Cc1ccc(F)cc1)Cc1csc2ccc(Cl)cc12 [Compound 21, 3-[(5-Chloro-benzo[b]thiophen-3-ylmethyl)7(4-fluoro-benzyl)-carbamoyl]-2-hydroxy-acrylic acid] | 98
16 | CN(CCc1ccc(F)cc1)C(=O)/C=C(\O)C(=O)O [Compound 22, 3-{[2-(4-Fluoro-phenyl)-ethyl]-methyl-carbamoyl}-2-hydroxy-acrylic acid] | 75
17 | CC(c1ccccc1)N(Cc1ccc(F)cc1)C(=O)/C=C(\O)C(=O)O (centres unmarked) [Compound 23, 3-[(4-Fluoro-benzyl)-(1-phenyl-ethyl)-carbamoyl]-2-hydroxy-acrylic acid] | 55
18 | O=C(O)/C(O)=C/C(=O)N(Cc1ccc(F)cc1)Cc1ccc(Cl)cc1 [Compound 24, 3-[(4-Chloro-benzyl)-(4-fluoro-benzyl)-carbamoyl]-2-hydroxy-acrylic acid] | 90
19 | O=C(O)/C(O)=C/C(=O)N(Cc1ccc(F)cc1)Cc1ccc(F)cc1F [Compound 25, 3-[(2,4-Difluoro-benzyl)-(4-fluoro-benzyl)-carbamoyl]-2-hydroxy-acrylic acid] | 96.5
20 | O=C(O)/C(O)=C/C(=O)N(Cc1ccc(F)cc1)Cc1ccc(F)c(F)c1 [Compound 26, 3-[(3,4-Difluoro-benzyl)-(4-fluoro-benzyl)-carbamoyl]-2-hydroxy-acrylic acid] | 97
21 | CC(C)(C)N(Cc1ccc(F)cc1)C(=O)/C=C(\O)C(=O)O [Compound 27, 3-[tert-Butyl-(4-fluoro-benzyl)-carbamoyl]-2-hydroxy-acrylic acid] | 33.5

Row | Structure (SMILES) | inhibition at 70 µM [%]
22 | O=C(O)/C(O)=C/C(=O)N(Cc1ccc(F)cc1)Cc1cccc(Cl)c1 [Compound 28, 3-[(3-Chloro-benzyl)-(4-fluoro-benzyl)-carbamoyl]-2-hydroxy-acrylic acid] | 96.5
23 | CC(C)N(Cc1ccc(F)cc1)C(=O)/C=C(\O)C(=O)O [Compound 29, 3-[(4-Fluoro-benzyl)-isopropyl-carbamoyl]-2-hydroxy-acrylic acid] | 38
24 | Cc1ccc(CN(C)C(=O)/C=C(\O)C(=O)O)cc1 [Compound 30, 2-Hydroxy-3-[methyl-(4-methyl-benzyl)-carbamoyl]-acrylic acid] | 84
25 | COc1ccc(CN(C)C(=O)/C=C(\O)C(=O)O)cc1 [Compound 31, 2-Hydroxy-3-[(4-methoxy-benzyl)-methyl-carbamoyl]-acrylic acid] | 82
26 | CCN(Cc1ccc(F)cc1)C(=O)/C=C(\O)C(=O)O [Compound 32, 3-[Ethyl-(4-fluoro-benzyl)-carbamoyl]-2-hydroxy-acrylic acid] | 93
27 | COc1cccc(CN(C)C(=O)/C=C(\O)C(=O)O)c1 [Compound 33, 2-Hydroxy-3-[(3-methoxy-benzyl)-methyl-carbamoyl]-acrylic acid] | 90
28 | CN(Cc1cccc(-c2ccccc2)c1)C(=O)/C=C(\O)C(=O)O [Compound 34, 3-(Biphenyl-3-ylmethyl-methyl-carbamoyl)-2-hydroxy-acrylic acid] | 85
29 | COc1ccc(CN(Cc2ccc(F)cc2)C(=O)/C=C(\O)C(=O)O)c(OC)c1 [Compound 35, 3-[(2,4-Dimethoxy-benzyl)-(4-fluoro-benzyl)-carbamoyl]-2-hydroxy-acrylic acid] | 95.5
30 | CN(Cc1ccc(OCc2ccccc2)cc1)C(=O)/C=C(\O)C(=O)O [Compound 36, 3-[(4-Benzyloxy-benzyl)-methyl-carbamoyl]-2-hydroxy-acrylic acid] | 30
31 | CN(Cc1cccc(C(F)(F)F)c1)C(=O)/C=C(\O)C(=O)O [Compound 37, 2-Hydroxy-3-[methyl-(3-trifluoromethyl-benzyl)-carbamoyl]-acrylic acid] | 82.5
32 | CN(Cc1ccccc1F)C(=O)/C=C(\O)C(=O)O [Compound 38, 3-[(2-Fluoro-benzyl)-methyl-carbamoyl]-2-hydroxy-acrylic acid] | 70
33 | CN(Cc1ccccc1-c1ccccc1)C(=O)/C=C(\O)C(=O)O [Compound 39, 3-(Biphenyl-2-ylmethyl-methyl-carbamoyl)-2-hydroxy-acrylic acid] | 85
34 | CN(Cc1cccc(F)c1)C(=O)/C=C(\O)C(=O)O [Compound 40, 3-[(3-Fluoro-benzyl)-methyl-carbamoyl]-2-hydroxy-acrylic acid] | 90
35 | CN(Cc1ccc(F)c2ccccc12)C(=O)/C=C(\O)C(=O)O [Compound 41, 3-[(4-Fluoro-naphthalen-1-ylmethyl)-methyl-carbamoyl]-2-hydroxy-acrylic acid] | 95
36 | COCCN(Cc1ccc(F)cc1)C(=O)/C=C(\O)C(=O)O [Compound 42, 3-[(4-Fluoro-benzyl)-(2-methoxy-ethyl)-carbamoyl]-2-hydroxy-acrylic acid] | 91
37 | O=C(O)/C(O)=C/C(=O)N(CCCc1ccccc1)Cc1ccc(F)cc1 [Compound 43, 3-[(4-Fluoro-benzyl)-(3-phenyl-propyl)-carbamoyl]-2-hydroxy-acrylic acid] | 93.5
38 | CN(C(=O)/C=C(\O)C(=O)O)C(c1ccc(F)cc1)c1cccnc1 (centres unmarked) [Compound 77, 3-{[(4-Fluoro-phenyl)-pyridin-3-yl-methyl]-methyl-carbamoyl}-2-hydroxy-acrylic acid] | 60
39 | CN(Cc1ccccc1OCc1ccc(F)cc1)C(=O)/C=C(\O)C(=O)O [Compound 82, 3-{[2-(4-Fluoro-benzyloxy)-benzyl]-methyl-carbamoyl}-2-hydroxy-acrylic acid] | 80
40 | O=C(O)/C(O)=C/C(=O)N(Cc1ccc(F)cc1)c1ccc(F)cc1OCc1ccc(F)cc1 [Compound 88, 3-{(4-Fluoro-benzyl)-[4-fluoro-2-(4-fluoro-benzyloxy)-phenyl]-carbamoyl}-2-hydroxy-acrylic acid] | 90
41 | O=C(O)CNC(=O)/C(O)=C/C(=O)N(Cc1ccc(F)cc1)Cc1ccc(F)cc1 [Compound 145, {3-[Bis-(4-fluoro-benzyl)-carbamoyl]-2-hydroxy-acryloylamino}-acetic acid] | 95
